Read-outs that look alike come from different tables or passages of the source.

One may read the Km as the concentration of substrate that gives half-maximal velocity.

In data set [1] the test system is Pichia etchellsii anthocyanase (Pantp, enzyme-5), native. Put plainly: Km determination via β-glucosidase activity, anthocyanase of P. etchellsii (enzyme-5). The format is biochemical. The note with it: native enzyme-5. As for the experimental part: The biochemical examinations of the anthocyanase (enzyme-5) of P. etchellsii were performed analogously to the anthocyanases examined up to then.
The temperature optimum was 50° C. and the optimal pH value was 6.5.

Data set [2] deals with Debaryomyces hansenii anthocyanase (Dantp, enzyme-2), native. In words: Km determination via β-glucosidase activity, anthocyanase of D. hansenii (enzyme-2). Format: biochemical. The note with it: read-out: Km value for cellobiose; native enzyme-2. As for the experimental part:
The biochemical examinations of the anthocyanase (enzyme-2) of D. hansenii were performed corresponding to the anthocyanases examined up to then. Thus, their biochemical parameters were determined by means of β-glucosidase activity determinations. […] D. hansenii anthocyanase has a temperature optimum of 55° C. and a pH optimum of 5.0. […] Furthermore, with this yeast, too, one started to establish the substrate spectrum.

For data set [3], the system named is Debaryomyces vanrijiae anthocyanase (DVantp, enzyme-4), native. In words: Km determination via β-glucosidase activity, anthocyanase of D. vanrijiae (enzyme-4). The format is biochemical. The note with it: read-out: Km value for cellobiose; established data. The text has this:
Moreover, the molecular weight and the isoelectric point were taken from literature (A. Belancic et al., J. Agric. Food Chem., 51: 1453-1459).

Substrate in data set [4]: OC[C@H]1O[C@@H](O[C@H]2[C@H](O)[C@@H](O)C(O)O[C@@H]2CO)[C@H](O)[C@@H](O)[C@@H]1O
In words: Km determination, recombinant anthocyanase (r-enzyme-1) of C. molischiana. As to conditions: other: recombinant anthocyanase (r-enzyme-1); pH 5.5. The format is biochemical, Candida molischiana. The protocol: (§1) A. adeninivorans G1211/pAL-ALEU2m-BGLN was tested for the presence of recombinant anthocyanase (Bglnp-r-enz-1). For doing so, the recombinant enzyme was isolated, purified and biochemically characterized.
(§2) The recombinant anthocyanase has parameters very similar to those of C. molischiana enzyme (FIG. 9 and FIG. 10).
(§3) The temperature optimum was established at 40° C. The temperature range in which this anthocyanase was still has more than 80% activity was between 37.5° C. and 50° C. The optimum pH value was 4.0. However, the recombinant anthocyanase has an essentially broader pH tolerance range than the anthocyanase synthesized in C. molischiana. Thus, its activity was still 80% with a pH value of 5.5.

Substrate in data set [5]: O=[N+]([O-])c1ccc(O[C@@H]2O[C@H](CO)[C@@H](O)[C@H](O)[C@H]2O)cc1
The description is as above. The format is biochemical, Candida molischiana. As to conditions: other: recombinant anthocyanase (r-enzyme-1); pH 5.5. The protocol:
as §1, §2, §3

Turning to `OC[C@H]1O[C@@H](O[C@H]2[C@H](O)[C@@H](O)C(O)O[C@@H]2CO)[C@H](O)[C@@H](O)[C@@H]1O` (stereo partly drawn) [cellobiose], the figures for the Km in data set [1] (read-out: Km value for cellobiose), in data set [2] and in data set [3] were 84.5 mM, 16.3 mM and 8.3 mM, respectively.
As for `O=[N+]([O-])c1ccc(O[C@@H]2O[C@H](CO)[C@@H](O)[C@H](O)[C@H]2O)cc1` [pNPG], in data set [1] (read-out: Km value for pNPG), the Km was found to be 59.7 mM.

B1: Candida molischiana anthocyanase (anthocyanin-β-glucosidase), recombinant, produced in Arxula adeninivorans (r-enzyme-1, rBglnp) (Kuraishia capsulata) (protein)
chain: KNISKAEMENLEHWWSYGRSDPVYPSPEISGLGDWQFAYQRAREIVALMTNEEKTNLTFGSSGDTGCSGMISDVPDVDFPGLCLQDAGNGVRGTDMVNAYASGLHVGASWNRQLAYDRAVYMGAEFRHKGVNVLLGPVVGPIGRVATGGRNWEGFTNDPYLAGALVYETTKGIQENVIACTKHFIGNEQETNRNPSGTYNQSVSANIDDKTMHELYLWPFQDSVRAGLGSIMGSYNRVNNSYACKNSKVLNGLLKSELGFQGFVVSDWGGQHTGIASANAGLDMAMPSSTYWEEGLIEAVKNGTVDQSRLDDMATRIIAAWYKYARLDDPGFGMPVSLAEDHELVDARDPAAASTIFQGAVEGHVLVKNENALPLKKPKYISLFGYDGVSTDVNTVGGGFSFFSFDVKAIENKTLISGGGSGTNTPSYVDAPFNAFVAKAREDNTFLSWDFTSAEPVANPASDACIDFINAAASEGYDRPNLADKYSDKLVEAVASQCSNTIVVIHNAGIRLVDNWIEHENVTGVILAHLPGQDTGTSLIEVLYGNQSPSGRLPYTVAKKASDYGGLLWPTEPEGDLDLYFPQSNFTEGVYIDYKYFIQKNITPRYEFGYGLTYTTFDYSELEVDAITNQSYLPPDCTIEEGGAKSLWDIVATVKFTVTNTGDVAAAEVPQLYVGIPNGPPKVLRGFDKKLIHPGQSEEFVFELTRRDLSTWDVVAQNWGLQAGTYQFYVGRSVFDVPLTSALVFTN
Turning to B1, the Km is listed as 58.27 mM in data set [4] and 5.56 mM in data set [5].

These data come from patent publication US20070066505A1, “Anthocyanases as detergent additives” (priority 2005, published 2007).
